Test results reported in article PMC3683333, “^11C-LY2428703, a positron emission tomographic radioligand for the metabotropic glutamate receptor 1, is unsuitable for imaging in monkey and human brains” (EJNMMI Research, 2013).

Columns and labels:
mGluR1 = test: Brain PET at baseline and after mGluR1 blockade, monkey; assay type: in vivo, rhesus monkeys (Macaca mulatta)
Description: Four male rhesus monkeys (Macaca mulatta, 11.7 ± 2.9 kg) were imaged in 13 PET scans. Seven scans were performed at baseline, three scans were performed after receptor blocking to calculate nondisplaceable uptake (VND), and three scans were performed after blockade of the efflux transporters at the blood–brain barrier. Receptors were blocked by mixing ^11C-LY2428703 with an mGluR1 antagonist - either nonradioactive LY2428703 (2.0 mg/kg) or LY2332084 (0.5 mg/kg) - in the same syringe. Efflux transporters were blocked in two scans by injecting DCPQ, which selectively blocks the efflux transporter ABCB1 (P-gp), and in one scan by injecting elacridar, which blocks both ABCB1 (P-gp) and ABCG2 (BCRP).
PET images were acquired using either the high-resolution research tomograph (HRRT) or the FOCUS 220 scanner (Siemens/CPS, Knoxville, TN, USA) for 120 min in 33 frames, with frame durations ranging from 30 s to 5 min, and correcting for attenuation and scatter. About 2 h before the PET scan, anesthesia was initiated with ketamine (10 mg/kg IM) and then maintained with 1% to 3% isoflurane. Electrocardiograph, body temperature, heart rate, and respiration rate were measured throughout the experiment. At baseline, the injected activity was 210 ± 51 MBq (specific activity at time of injection 43.2 ± 25.6 GBq/μmol, mass dose 6.9 ± 4.7 nmol or 0.62 ± 0.35 nmol/kg). Tissue time-activity curves were obtained from semi-automatic regions of interest encompassing the whole cerebellum and the rest of the brain. Brain uptake was expressed as standardized uptake value (SUV). Arterial input function was obtained for eight scans: four at baseline, two after blocking with nonradioactive LY2428703, one after blocking with DCPQ, and one after blocking with elacridar. Blood samples (0.5 mL each) were drawn through a port connected to the femoral artery at 15-s intervals until 2 min, followed by 1-mL samples at 3, 5, 10, 30, 60, 90, and 120 min. The plasma time-activity curve was corrected for the fraction of unchanged radioligand following the procedure detailed above.
Volumes of distribution (VT) were obtained by nonlinear compartmental analysis. Goodness-of-fit by nonlinear least squares analysis was evaluated using the Akaike Information Criterion (AIC) and Model Selection Criterion (MSC). The most appropriate model is that with the smallest AIC and the largest MSC score. Goodness-of-fit by the compartment models was compared with F statistics. A value of P < 0.05 was considered significant for F statistics. The identifiability of kinetic variables was calculated as standard error obtained from the diagonal of the covariance matrix and expressed as a percentage of the rate constant.

[1] = Arterial plasma analysis after injection, monkey; assay type: in vivo, rhesus monkeys; details: after intravenous injection
Description: Plasma analyses were performed on a reverse-phase chromatography C18 column (Novapak, 4 μm, 100 × 8 mm, Waters Corp. Milford, MA, USA) using Radial-Pak® compression module RCM-100 with a sentry pre-column. Human plasma analyses were performed with a mobile phase of […], at a flow rate of 2.5 mL/min; nonhuman primate plasma samples were analyzed with a mobile phase of MeOH/H2O/Et3N, 72.5:27.5:0.1 by volume, at a flow rate of 1.5 mL/min. To compare the outcome from both systems, elution volume is reported rather than retention time.
Arterial plasma was analyzed as previously described. Briefly, after ^11C-LY2428703 injection into either human or nonhuman primate, the input function was determined by periodically drawing anticoagulated blood samples. […] The samples were counted in the γ-counter and centrifuged at 10,000×g for 1 min. […] The precipitates were then counted for radioactivity to allow the calculation of the efficiency of recovery of radioactivity in the acetonitrile. […]
PET images were acquired using either the high-resolution research tomograph (HRRT) or the FOCUS 220 scanner (Siemens/CPS, Knoxville, TN, USA) for 120 min in 33 frames, with frame durations ranging from 30 s to 5 min, and correcting for attenuation and scatter. […] Electrocardiograph, body temperature, heart rate, and respiration rate were measured throughout the experiment. […]

[2] = Brain exposure comparison of five radioligands; assay type: in vivo, human; details: in vivo
Description: Another complicating factor is low delivery to brain (i.e., low drug exposure), which may have cause low brain uptake. We compared five different radioligands from previous studies with regard to exposure to brain (Table 3) and measured the area under the curve of plasma concentration vs. time from 0 to 20 min. […] The effective exposure was thus named because only the free concentration of drug can cross the blood–brain barrier. ^11C-LY2428703 had the highest exposure value among the tracers tested. This high exposure was due to the slow wash-out of the tracer from the vascular compartment and to negligible metabolism in plasma, that is, parent radioligand represented 99% of plasma radioactivity even at the end of the 2-h scanning session.

[3] = Pharmacological effects of injection, human; assay type: in vivo; details: three human subjects
From the text: Three healthy females participated in the study (29 ± 2-year old, 69 ± 13 kg). All were free from current medical and psychiatric illnesses, as assessed by medical history, physical examination, electrocardiogram, urinalysis including drug screening, and blood tests (complete blood count, serum chemistries, thyroid function test, and antibody screening for syphilis, HIV, and hepatitis B). The National Institutes of Health Central Nervous System Institutional Review Board approved the protocols and the consent forms. Written informed consent was obtained from all subjects.

[4] = In vitro stability in nonhuman primate blood and plasma; assay type: in vitro ADME; details: monkey, room temperature
Description: Nonradioactive anticoagulated blood was obtained on the day of study from either human or nonhuman primates. Aliquots of ^11C-LY2428703 (about 150 kBq) were added to 0.5 mL of whole blood or 0.5 mL of plasma. Samples were incubated at room temperature for 30 min, after which either 450 μL of the radioactive plasma was added to 720 μL of acetonitrile or 200 μL of the radioactive whole blood was added to 300 μL of water. The tube containing the blood suspension was shaken well to mix and lyse the blood cells. Seven hundred and twenty microliters of acetonitrile was subsequently added and mixed well to precipitate the proteins, followed by 100 μL of water, which was again re-mixed. Radioactivity in the tubes was measured in a gamma counter and then centrifuged at 10,000×g for 1 min. The clear supernatant liquid was injected into the high-performance liquid chromatography (HPLC) column and the precipitate counted to calculate the recovery of radioactivity into the acetonitrile.
The stability of the radioligand in whole blood or plasma was calculated as the ratio of the HPLC % composition of samples divided by the radiochemical purity of the radioligand.

## Cc1c(-c2ccc(O[11CH3])cc2)nsc1NC(=O)[C@@H]1C[C@H]1C [^11C-LY2428703]
mGluR1; after mGluR1 blockade
  peak uptake in cerebellum: 4.9 ± 0.8 SUV
  peak uptake in forebrain: 3.6 ± 1.9 SUV
mGluR1; baseline
  peak uptake in cerebellum: 3.1 ± 1.4 SUV
  peak uptake in cerebellum higher than in forebrain: about 50%
  peak uptake in forebrain: 2.2 ± 0.8 SUV
  time at which cerebellar uptake decreased to 50% of peak: about 20 min
  time of peak uptake in cerebellum: approximately 2 min
  time of peak uptake in forebrain: approximately 2 min
mGluR1; baseline scans, two-tissue compartment model
  mean VT: 3.5 ± 1.0 mL/cm^3
mGluR1; calculated from mGluR1 blocking studies
  VND: 4.4 ± 2.9 mL/cm^3
[1]
  time of peak plasma concentration: 1 to 1.5 min
[2]
  Brain peak SUV: ~0.5 SUV
  Effective exposure (E × fp): 0.19
[3]
  pharmacological effects (vital signs, electrocardiogram, laboratory testing, verbal reports): no pharmacological effects
[4]
  stability in whole blood and plasma: completely stable
